Results reported in patent US20130005696A1, “BUFADIENOLIDE DERIVATIVES, PREPARING PROCESS THEREOF, COMPOSITION COMPRISING THE SAME AND THE USE THEREOF” (priority 2011, published 2013).

What was measured:
[1] = tested on: human hepatic carcinoma HepG2 xenograft; assay: Therapeutic effect against HepG2 xenograft in nude mice; type: in vivo, Balb/c nude mice; details: QOD × 14 d
Method: (§1) This experiment is to investigate the in vivo inhibitory effect of II1E-01.HCl on growth of human-derived hepatic carcinoma HepG2 cell, human-derived breast carcinoma MDA-MB-231 cell, human-derived lung carcinoma H460 cell, human-derived colon carcinoma HCT-116 cell, human-derived […] MV-4-11 cell xenografts in nude mice.
(§2) Formulation of solvent control (5% anhydrous ethanol & 5% aqueous glucose solution): 2.5 mL anhydrous ethanol was added into a 50 mL tube, followed by addition of 47.5 mL 5% glucose solution for injection followed by shaking, and stored at room temperature before use.
(§3) Formulation of the preparations of the compounds to be tested: formulations with concentrations of 0.4 mg/mL and 0.6 mg/mL were prepared respectively. An appropriate amount of II1E-01.HCl was weighted and put into a 50 mL tube, followed by addition of corresponding volume of solvent to get the desired concentration and mixed using a vortex mixer. After the solid was dissolved completely, the solution was subpackaged into 4 mL vials and stored at refrigerated condition (2-8° C.) until use.
(§4) Experimental animals: Balb/c nude mice (male, six weeks old).
HepG2 cells were in vitro cultured to be proliferated. The cells in the log phase of growth were collected and resuspended in DMEM serum-free medium, and then implanted subcutaneously into the axilla of the right forelimb of nude mice. After 11 days, the tumor size reached about 250 mm^3. The mice bearing the tumor were grouped according to the tumor size into 6 groups, including the group of solvent control, groups of positive controls (Rapamycin 10 mg/kg and Vinorelbine 8 mg/kg), and groups of low (2 mg/kg), middle (4 mg/kg) and high (6 mg/kg) dosages of the testing compound II1E-01.HCl. Each group was administered intravenously at tail. In the solvent control group, the solvent control solution was administered intravenously once every other day (QOD). In the low, middle and high dosage groups of II1E-01.HCl, II1E-01.HCl was administered intravenously once every other day (QOD). In the positive control groups, Rapamycin 10 mg/kg and Vinorelbine 8 mg/kg were administered once a week (QW). The animals were given the drugs for two weeks. In the two week time period, the growth of tumor and the body weight of the mice were observed.
Two weeks after administering (the 25th day after the implantation), the tumor weight and inhibition rate were calculated, and results are listed in Table 5.

[2] = tested on: human-derived leukaemia MV-4-11 xenograft; assay: Therapeutic effect against MV-4-11 xenograft in nude mice; type: in vivo, Balb/c nude mice; details: for Inhibition Rate (%): 4 mg/kg
Method: as §1, §2, §3, §4
MV-4-11 cells were in vitro cultured to be proliferated. The cells in the log phase of growth were collected and resuspended in IMDM serum-free medium, and then implanted subcutaneously into the axilla of the right forelimb of nude mice. After 37 days, the tumor size reached about 270 mm^3. The mice bearing the tumor were grouped by randomized block method according to the tumor size into 3 groups, which contain 6 mice in each group and include the group of solvent control, group of positive control (Sunitinib 40 mg/kg), and group of the testing compound II1E-01.HCl (4 mg/kg QOD). In the positive control group, sunitinib was administered intragastrically once daily (QD). In the group of II1E-01.HCl, II1E-01.HCl was administered intravenously at tail once every other day (QOD). The animals were given the drugs for 21 days, during which the growth of tumor and the body weight of the mice were observed.
After continuously administering for 21 days (the 58th day after the implantation), the tumor weight and inhibition rate were calculated, and results are listed in Table 9. […] In the group of the testing compound II1E-01.HCl (4 mg/kg QOD), the tumor also completely disappeared at 14th day after administration, and the inhibition rate was 100.00% (P<0.01) at the end of the experiment.

[3] = tested on: HeLa human cervical carcinoma cell line; assay: In vitro antitumor activity assay (SRB), HeLa; type: cell-based; details: read-out: IC50, inhibitory activity on cell proliferation of HeLa cell line
In short: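 Log-phase cells attached 24 h, then exposed in triplicate to compounds at 10 μM–0.1 nM in saline for 72 h at 37 °C in RPMI-1640. TCA-fixed, SRB-stained, A515 read; percent inhibition versus saline control, IC50 fitted.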

[4] = tested on: LoVo human colon carcinoma cell line; assay: In vitro antitumor activity assay (SRB), LoVo; type: cell-based; details: Table 2, read-out: IC50, inhibition of cell proliferation, LoVo
Description: HeLa human cervical carcinoma cell line, A-549 human non-small cell lung carcinoma cell line, NCI-H2228 human lung carcinoma cell line, NCI-H460 human lung carcinoma cell line, MDA-MB-231 human breast carcinoma cell line, MCF-7 human breast carcinoma cell line, Bel-7402 human hepatic carcinoma cell line, Hep3B human hepatic carcinoma cell line, QGY-7703 human hepatic carcinoma cell line, MV-4-11 human leukemic cell line, DAUDI human leukemic cell line, Jurkat human leukemic cell line, A498 renal carcinoma cell line, LoVo human colon carcinoma cell line, HCT1116 human colon carcinoma cell line, A431 human skin carcinoma cell line, PANC-1 human pancreatic carcinoma cell line, U87-MG human brain carcinoma cell line, SH-SY5Y human brain carcinoma cell line, RPMI-8226 human bone carcinoma cell line, HT1080 human fibrosarcoma cell line, PC-3 human prostatic carcinoma cell line, AGS human gastric adenocarcinoma cell line, and BGC-823 human gastric adenocarcinoma cell line were purchased from the Cell Bank of the Chinese Academy of Sciences.
The positive control is bufalin (formulated according to the common method), its purity is 98% or more by HPLC-UV and its structure is identified by NMR. The compounds to be tested and the positive control were diluted with normal saline with a concentration gradient of 10^−4 M, 10^−5 M, 10^−6 M, 10^−7 M and 10^−8 M.
According to cell growth rate, tumor cells in the log phase of growth were seeded into 96-well culture plates at 100 μL per well, and allowed to attach for 24 hours, followed by addition of a test compound or positive control at 10 μL per well. For each concentration, the test was carried out in triplicate wells. Solvent control wells with addition of normal saline into cell culture and a blank well containing only cell culture medium but without cells for zeroing were also included. The tumor cells were incubated for 72 hours at 37° C. under 5% CO2, and then the culture medium (RPMI-1640) was removed. The cells were fixed with 10% cool TCA by incubating for 1 h at 4° C., washed with distilled water for 5 times, and dried naturally in the air. A solution of SRB (Sigma) (4 mg/mL) in 1% glacial acetic acid was added at 100 μL per well, and the cells were stained for 15 minutes at room temperature, and the supernatant was discarded. The plates were washed for 5 times with 1% acetic acid, and dried in air. Finally, Tris solution was added at 150 μL per well, and the absorbance (A) was measured at a wavelength of 515 nm using a microplate reader. The growth inhibition on tumor cell proliferation was calculated according to the following equation:
Growth Inhibition (%)=[(Absorbance of negative control−Absorbance of blank)−(Absorbance of sample−Absorbance of blank)]/(Absorbance of negative control−Absorbance of blank)×100%
Drug concentration: 10 μM, 1 μM, 0.1 μM, 10 nM, 1 nM, 0.1 nM.
IC50 was fitted by GraphPad Prism 4.

Row | Compound | Tumor Weight(g) Mean ± SE ([1]; 2 mg/kg iv) [g] | Inhibition Rate (%) ([1]; 2 mg/kg iv, 2 mg/kg) | Inhibition Rate (%) ([1]; 2 mg/kg iv, listed as II1E-01.HCl, 2 mg/kg) | Tumor Weight(g) Mean ± SE ([1]; 4 mg/kg iv) [g] | Inhibition Rate (%) ([1]; 4 mg/kg iv, 4 mg/kg) | Inhibition Rate (%) ([1]; 4 mg/kg iv, listed as II1E-01.HCl, 4 mg/kg) | Tumor Weight(g) Mean ± SE ([1]; 6 mg/kg iv) [g] | Inhibition Rate (%) ([1]; 6 mg/kg iv, 6 mg/kg) | Inhibition Rate (%) ([1]; 6 mg/kg iv, listed as II1E-01.HCl, 6 mg/kg) | day after administration at which the tumor completely disappeared ([2]; 4 mg/kg iv QOD) [days] | Tumor Weight(g) Mean ± SE ([2]; 4 mg/kg iv, QOD × 21 d) [g] | Inhibition Rate (%) ([2]; 4 mg/kg iv, QOD × 21 d) | Inhibition Rate (%) ([2]; 4 mg/kg iv, QOD × 21 d, listed as II1E-01.HCl) | IC50 [3] [nM] | IC50 [4] [nM]
1 | C[C@]12CC[C@H](OC(=O)NC3CCNCC3)C[C@H]1CC[C@@H]1[C@@H]2CC[C@]2(C)[C@@H](c3ccc(=O)oc3)CC[C@]12O.Cl [II1E-01•HCl] | 0.3177 ± 0.0410 | 58.50 | 58.50 | 0.0938 ± 0.0121 | 87.75 | 87.75 | 0.0262 ± 0.0054 | 96.58 | 96.58 | 14 | 0.0000 ± 0.0000 | 100.00 | 100.00 | – | –
2 | C[C@]12CC[C@H](O)C[C@H]1CC[C@@H]1[C@@H]2CC[C@]2(C)[C@@H](c3ccc(=O)oc3)CC[C@]12O [bufalin, reference compound] | – | – | – | – | – | – | – | – | – | – | – | – | – | 7.27 | 29.5 ± 1
